“Also recorded” adds a separate entry of the source.
Legend:
[1] = system: tactile allodynia in rats with SNL neuropathy; assay: Tactile allodynia (von Frey filaments) in the spinal nerve ligation (SNL) model of neuropathic pain; type: in vivo, rat
Description: The effect on neuropathic pain (tactile allodynia) was measured 5-6 days following operation as disclosed above. Rats responding to mechanical stimuli of 10 g or less (in the operated leg) were eligible for the study and were included in the drug administration regime.
Briefly, under ketamine-xylazine anesthesia the rat was placed in a prone position and the left paraspinal muscles were separated from spinous processes at the L4-S2 level. Part of the L6 transverse process was removed and the L4-L6 spinal nerves were identified. The L5-L6 spinal nerves were isolated and tightly ligated and cut, distal to the dorsal root ganglion and proximal to the formation of the sciatic nerve. Following complete homeostasis the wound was sutured.
A volume of 4 ml/kg (volume of injected suspension/rat body weight) was then injected to the rats. […] The three drugs and the control vehicle were administered i.p. (intraperitoneally) to rats at postoperative days 7, 14 and 21 in a double blind randomized crossover manner.
The rat was placed on a metal mesh floor covered with a transparent plastic dome, a period of acclimatization was allowed prior to testing. VFFs were applied from underneath the mesh floor to the plantar surface of the foot. Each trial consisted of repeated applications of each of the VFFs in an ascending order for 5 times, each for a period of 1 second. testing between two consecutive ascending VFFs was separated by period of 2 min. If the rat withdrew the foot at least 3 times out of 5 at a specific VFF no further ascending filaments were tested and this filament was considered as a withdrawal threshold (response). Mechanical stimulus trials with the series of ascending VFF were repeated 2 times for a given time point. The repeated measurements were averaged and taken as the paw withdrawal threshold on a given time point.
The absolute threshold and the difference in the allodynic threshold (time point minus baseline) values were tested using Mann-Whitney Test and Kruskal-Wallis Nonparametric test (two tailed) followed by Dunn's Multiple comparison test. The ED50 (median effective dose) was calculated by using Probit analysis method.
Briefly, under ketamine-xylazine anesthesia (85 mg kg^−1, i.p and 13 mg kg^−1, i.p, respectively) rats were placed in a prone position and paraspinal muscles on the left were separated from the L4-S2 spinous processes. Part of the L6 transverse process was removed and the underlying L4-L6 spinal nerves were identified. The L5 and L6 spinal nerves were isolated, tightly ligated with 5-0 silk, and cut just distal to the ligature. The ligature was approximately 8 mm distal to the corresponding dorsal root ganglion (DRG). Following complete homeostasis the wound was sutured in layers, the skin closed with Michel clips, topical bacteriostatic power was applied, and 20000 units of duplo-penicillin was injected intramuscularly (i.m.).
We used a set of 9 nylon von Frey monofilaments (VFF, Semmes-Weinstein monofilaments, Stoelting, Wood Dale, Ill., USA) to quantify foot withdrawal in response to normally innocuous tactile stimuli. […] Forces were calibrated by lowering filaments onto the pan of an electronic balance until they just bent.
Rats were placed on a raised wire mesh screen (gaps 4 mm×4 mm), which allowed access to the plantar surface of the hindpaw from below. They were covered with a transparent plastic dome, 13 cm high, which prevented rearing on the hindlimbs. A period of 20 min was allowed for acclimation prior to sensory testing. The mid-plantar hindpaw skin just caudal to the footpads, half way between medial and lateral edges of the foot, was subjected to a series of 5 brief probes, spaced at about 1 s. Each such stimulus was sufficient to just bend the filament. Testing began with the filament with the weakest initial bending force (0.6 g). […] Response threshold was the bending force of the first monofilament in the series that evoked a criterion ≧⅗ responses.

[2] = system: motor performance (rotarod test); assay: Neurological motor dysfunction tests (accelerating rotarod, observation for sedation); conditions: for motor performance, time to fall off the rotarod: n=6, vehicle 118.0±2.3; for effect on motor performance (rotarod test) compared to vehicle: highest doses tested (VPA 400, DID 90 mg kg^−1 i.p.), p>0.05, n=6; for neurological motor dysfunction or sedation at the highest drug dose tested: normal rats
Description: On the day of testing, a baseline response was obtained, and rats were subsequently administered drug or vehicle. […] In addition, we examined our rats individually for signs of motor dysfunction and sedation as assessed by posture and gate during spontaneous and induced movement, grooming, chewing, stepping reflex, and startle reflex evoked by tapping on the cage.
For each drug and dose, attenuation of tactile allodynia (threshold measured in g) was measured. […] These areas under the response curve values for every group of rats per dose were evaluated against vehicle treatment using the nonparametric Wilcoxon one tailed test (dose of drug tested vs. vehicle on the same treatment). […] A p value <0.05 was considered statistically significant.

| SMILES | antiallodynic effect / effectiveness for treating neuropathic pain ([1]; rat, in vivo) | ED50 (tactile allodynia) ([1]; rat, in vivo, ip) | SNL-ED50 ([1]; rat, in vivo, ip) | dose dependence of the antiallodynic effect ([1]; rat, in vivo, ip) | lowest effective dose (significant increase of the allodynic threshold vs vehicle) ([1]; rat, in vivo, ip) | rats with no response to 15 g or above VFF at the highest dose tested ([1]; rat, in vivo, ip) | time of maximal effect after administration ([1]; rat, in vivo, ip) | motor performance, time to fall off the rotarod ([2]; DID 90 mg kg^−1 i.p., 120 min after dosing) | effect on motor performance (rotarod test) compared to vehicle [2] | neurological motor dysfunction or sedation at the highest drug dose tested [2] | rats relieved from tactile allodynia at the highest dose tested ([1]; VPA 400 mg kg^−1 i.p.) | dose dependence of the antiallodynic effect ([1]; i.p., rat) | lowest effective dose (significant increase of the allodynic threshold vs vehicle) ([1]; i.p., rat) | time of maximal effect after administration ([1]; i.p., rat) | ED50 (tactile allodynia) ([1]; i.p., rat, 60 min after dosing) | SNL-ED50 ([1]; i.p., rat, 60 min post injection, DID at 120 min) | ED50 ([1]; ip, 1 h, i.p., rat, 60 min after administration, protected = threshold of at least 15 g, read-out: ED50 (tactile allodynia threshold)) | motor performance, time to fall off the rotarod ([2]; VPA 400 mg kg^−1 i.p., 60 min after dosing) |
| --- | --- | --- | --- | --- | --- | --- | --- | --- | --- | --- | --- | --- | --- | --- | --- | --- | --- | --- |
| CC(C)C(C(N)=O)C(C)C [DID, diisopropylacetamide] | effective for treating neuropathic pain | 58 mg/kg | 58 mg/kg | dose-related antiallodynic activity | 20 mg/kg | 63% | 120 min | 103.8 ± 22.3 s | no significant effect | not sufficient to cause neurological motor dysfunction or sedation |  |  |  |  |  |  |  |  |
| CCCC(CCC)C(=O)O [VPA, Valproic acid, reference compound] |  |  |  |  |  |  |  |  | no significant effect | not sufficient to cause neurological motor dysfunction or sedation | 88% | in a dose dependent manner; also recorded: in a dose-dependent manner | 300 mg/kg | 60 min | 269 mg/kg | 269 mg/kg | 269 mg/kg | 96.8 ± 23.7 s |

Reference: patent US20100160443A1, “COMPOUNDS USEFUL FOR TREATING NEUROLOGICAL DISORDERS” (Yissum Research Development Company of The Hebrew …, priority 2003, published 2010)
